Test results published in the supplement of paper PMC11061612.

Columns and labels:
AZD0156 = compound: CN(C)CCCOc1ccc(-c2ccc3ncc4c(c3c2)n(C2CCOCC2)c(=O)n4C)cn1 [AZD0156]; conditions: max 3 µM
Outline: (§1)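 Cancer cell lines in 1536-well plates (7.5 μl DMEM/F12 or RPMI, 10% FBS) were held 24 hours at 37°C and 5% CO2 and then dosed for 72 hours at a final DMSO of typically 0.2%. Viability was taken from CellTiter-Glo 2.0 luminescence, scaled between blank-well and DMSO-well means. Curves were fitted as two-parameter logistic models with a non-linear mixed effects model, from which the single-agent IC50 was taken.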

AZD7648 = compound: Cc1cc2ncnn2cc1Nc1ncc2c(n1)n(C1CCOCC1)c(=O)n2C [AZD7648]; conditions: max 10 µM
Outline: as §1

Palbociclib = compound: CC(=O)c1c(C)c2cnc(Nc3ccc(N4CCNCC4)cn3)nc2n(C2CCCC2)c1=O [Palbociclib]; conditions: max 10 µM
Outline: as §1

Trametinib = compound: CC(=O)Nc1cccc(-n2c(=O)n(C3CC3)c(=O)c3c(Nc4ccc(I)cc4F)n(C)c(=O)c(C)c32)c1 [Trametinib]; conditions: max 1 µM
Outline: as §1

Selumetinib = compound: Cn1cnc2c(F)c(Nc3ccc(Br)cc3Cl)c(C(=O)NOCCO)cc21 [Selumetinib]; conditions: max 10 µM
Outline: as §1

Gefitinib = compound: COc1cc2ncnc(Nc3ccc(F)c(Cl)c3)c2cc1OCCCN1CCOCC1 [Gefitinib]; conditions: max 10 µM
Outline: as §1

SG3199 = compound: CC1=CN2[C@@H](C1)C=NC3=CC(=C(C=C3C2=O)OC)OCCCCCOC4=C(C=C5C(=C4)N=C[C@@H]6CC(=CN6C5=O)C)OC [SG3199]; conditions: max 0.001 µM
Outline: as §1

Capivasertib = compound: C1CN(CCC1(C(=O)N[C@@H](CCO)C2=CC=C(C=C2)Cl)N)C3=NC=NC4=C3C=CN4 [Capivasertib]; conditions: max 10 µM
Outline: as §1

Lapatinib = compound: CS(=O)(=O)CCNCc1ccc(-c2ccc3ncnc(Nc4ccc(OCc5cccc(F)c5)c(Cl)c4)c3c2)o1 [Lapatinib]; conditions: max 10 µM
Outline: as §1

Dasatinib = compound: CC1=C(C(=CC=C1)Cl)NC(=O)C2=CN=C(S2)NC3=CC(=NC(=N3)C)N4CCN(CC4)CCO [Dasatinib]; conditions: max 2 µM
Outline: as §1

Taselisib = compound: Cc1nc(-c2cn3c(n2)-c2ccc(-c4cnn(C(C)(C)C(N)=O)c4)cc2OCC3)n(C(C)C)n1 [Taselisib]; conditions: max 10 µM
Outline: as §1

Alisertib = compound: COc1cc(Nc2ncc3c(n2)-c2ccc(Cl)cc2C(c2c(F)cccc2OC)=NC3)ccc1C(=O)O [Alisertib]; conditions: max 10 µM
Outline: as §1

AZD1390 = compound: CC(C)n1c(=O)n(C)c2cnc3cc(F)c(-c4ccc(OCCCN5CCCCC5)nc4)cc3c21 [AZD1390]; conditions: max 0.3 µM
Outline: as §1

Doxorubicin = compound: COc1cccc2c1C(=O)c1c(O)c3c(c(O)c1C2=O)C[C@@](O)(C(=O)CO)C[C@@H]3O[C@H]1C[C@H](N)[C@H](O)[C@H](C)O1 [Doxorubicin]; conditions: max 1 µM
Outline: as §1

AZD2811 = compound: CCN(CCO)CCCOc1ccc2c(Nc3cc(CC(=O)Nc4cccc(F)c4)[nH]n3)ncnc2c1 [AZD2811]; conditions: max 1 µM
Outline: as §1

Crizotinib = compound: C[C@@H](Oc1cc(-c2cnn(C3CCNCC3)c2)cnc1N)c1c(Cl)ccc(F)c1Cl [Crizotinib]; conditions: max 10 µM
Outline: as §1

AZD6738 = compound: C[C@@H]1COCCN1C2=NC(=NC(=C2)C3(CC3)[S@](=N)(=O)C)C4=C5C=CNC5=NC=C4 [AZD6738]; conditions: max 10 µM
Outline: as §1

AZD4320 = compound: CN(CC[C@H](CSC1=CC=CC=C1)NC2=C(C=C(C=C2)S(=O)(=O)NC(=O)C3=CC=C(C=C3)N4CCC(CC4)[C@H](C5=CC=CC=C5C6=CC=C(C=C6)Cl)O)S(=O)(=O)C(F)(F)F)CCO [AZD4320]; conditions: max 1 µM
Outline: as §1

AZD5991 = compound: Cc1c2c(nn1C)CSCc1cc(n(C)n1)CSc1cc(c3ccccc3c1)OCCCc1c(C(=O)O)n(C)c3c-2c(Cl)ccc13 [AZD5991]; conditions: max 1 µM
Outline: as §1

AZD8186 = compound: C[C@@H](Nc1cc(F)cc(F)c1)c1cc(C(=O)N(C)C)cc2c(=O)cc(N3CCOCC3)oc12 [AZD8186]; conditions: max 3 µM
Outline: as §1

Savolitinib = compound: C[C@@H](c1ccc2nccn2c1)n1nnc2ncc(-c3cnn(C)c3)nc21 [Savolitinib]; conditions: max 1 µM
Outline: as §1

Venetoclax = compound: CC1(C)CCC(CN2CCN(c3ccc(C(=O)NS(=O)(=O)c4ccc(NCC5CCOCC5)c([N+](=O)[O-])c4)c(Oc4cnc5[nH]ccc5c4)c3)CC2)=C(c2ccc(Cl)cc2)C1 [Venetoclax]; conditions: max 1 µM
Outline: as §1

SN-38 = compound: CCc1c2c(nc3ccc(O)cc13)-c1cc3c(c(=O)n1C2)COC(=O)[C@]3(O)CC [SN-38]; conditions: max 0.3 µM
Outline: as §1

AZD1775 = compound: C=CCn1c(=O)c2cnc(Nc3ccc(N4CCN(C)CC4)cc3)nc2n1-c1cccc(C(C)(C)O)n1 [AZD1775]; conditions: max 3 µM
Outline: as §1

AZD5153 = compound: COc1nnc2ccc(N3CCC(c4ccc(OCCN5CCN(C)C(=O)[C@H]5C)cc4)CC3)nn12 [AZD5153]; conditions: max 1 µM
Outline: as §1

Prexasertib = compound: COc1cccc(OCCCN)c1-c1cc(Nc2cnc(C#N)cn2)n[nH]1 [Prexasertib]; conditions: max 1 µM
Outline: as §1

Olaparib = compound: O=C(c1cc(Cc2n[nH]c(=O)c3ccccc23)ccc1F)N1CCN(C(=O)C2CC2)CC1 [Olaparib]; conditions: max 10 µM
Outline: as §1

Row | Cell Line | IC50, cell viability 72 h (AZD0156) [nM] | IC50, cell viability 72 h (AZD7648) [nM] | IC50, cell viability 72 h (Palbociclib) [nM] | IC50, cell viability 72 h (Trametinib) [nM] | IC50, cell viability 72 h (Selumetinib) [nM] | IC50, cell viability 72 h (Gefitinib) [nM] | IC50, cell viability 72 h (SG3199) [nM] | IC50, cell viability 72 h (Capivasertib) [nM] | IC50, cell viability 72 h (Lapatinib) [nM] | IC50, cell viability 72 h (Dasatinib) [nM] | IC50, cell viability 72 h (Taselisib) [nM] | IC50, cell viability 72 h (Alisertib) [nM] | IC50, cell viability 72 h (AZD1390) [nM] | IC50, cell viability 72 h (Doxorubicin) [nM] | IC50, cell viability 72 h (AZD2811) [nM] | IC50, cell viability 72 h (Crizotinib) [nM] | IC50, cell viability 72 h (AZD6738) [nM] | IC50, cell viability 72 h (AZD4320) [nM] | IC50, cell viability 72 h (AZD5991) [nM] | IC50, cell viability 72 h (AZD8186) [nM] | IC50, cell viability 72 h (Savolitinib) [nM] | IC50, cell viability 72 h (Venetoclax) [nM] | IC50, cell viability 72 h (SN-38) [nM] | IC50, cell viability 72 h (AZD1775) [nM] | IC50, cell viability 72 h (AZD5153) [nM] | IC50, cell viability 72 h (Prexasertib) [nM] | IC50, cell viability 72 h (Olaparib) [nM]
1 | RD (Rhabdomyosarcoma) | > 3000 | > 10000 | > 10000 | > 1000 | > 10000 | > 10000 | > 1 | > 10000 | > 10000 | > 2000 | 2270 | > 10000 | > 300 | > 1000 | > 1000 | > 10000 | > 10000 | 706 | > 1000 | > 3000 | > 1000 | > 1000 | > 300 | 1030 | 951 | 465 | > 10000
2 | RPMI-8226 (Plasma Cell Myeloma) | > 3000 | > 10000 | 5790 | > 1000 | > 10000 | > 10000 | > 1 | > 10000 | > 10000 | > 2000 | > 10000 | 1410 | > 300 | 599 | > 1000 | > 10000 | 2020 | 150 | 88.2 | > 3000 | > 1000 | > 1000 | 59.6 | 1600 | 114 | 30.5 | > 10000
3 | SK-GT-2 (Gastric Carcinoma) | > 3000 | > 10000 | > 10000 | > 1000 | > 10000 | 4890 | > 1 | > 10000 | 1130 | > 2000 | 6640 | > 10000 | > 300 | > 1000 | > 1000 | > 10000 | > 10000 | > 1000 | > 1000 | > 3000 | > 1000 | > 1000 | > 300 | 848 | > 1000 | 76.7 | > 10000
4 | SNU-398 (Hepatocellular Carcinoma) | > 3000 | > 10000 | > 10000 | 849 | > 10000 | > 10000 | > 1 | > 10000 | > 10000 | > 2000 | > 10000 | 4320 | > 300 | > 1000 | 801 | > 10000 | > 10000 | > 1000 | 150 | > 3000 | > 1000 | > 1000 | > 300 | 701 | 941 | 777 | > 10000
